Legend:
CYP 2B/3A = experiment: BROD inhibition control in Aroclor 1254-induced rat liver microsomes; assay type: biochemical; conditions: for BROD enzyme activity: 0 µM control 445.1 ± 9.1
Experimental: For determination of the enzyme activities in triplicates, 85 µL master mix (100 mM TrisHCl pH 7.5, 2 mM 5’AMP, 5 mM G-6-P, 10 U G-6-P-DH, 10 mM Dicumarol, 10 mM MgCl2, either 2 µM EROD or 10 µM PROD or 5 µM BROD) was added to 10 µL microsomal fraction (1 mg protein/mL). The reaction was started by the addition of 5 µL 2 mM NADPH (dissolved in 100 mM TrisHCl pH 7.5) followed by incubation at 37 °C for 16 min. The activity was determined by measuring the increase of the fluorescence (excitation at 550 nm, emission at 585 nm) due to resorufin formation compared with resorufin standards, which had been prepared by dissolving tenfold concentrated solutions in DMSO, which were then diluted tenfold in 100 mM TrisHCl pH 7.5.
As a method control the described AROD assay was performed with microsomal fractions derived from liver and lung of male Wistar rats which had been treated i.p. for 5 days with aroclor 1254 (500 mg/kg bw). These control assays were performed in presence of 1 μM, 10 μM or 100 μM NVP, respectively, in order to check for potential interactions of NVP with the substrate turnover in the AROD assay.

rat liver = experiment: Liver histology, hematoxylin–eosin staining; assay type: in vivo
Experimental: HE staining was performed essentially according to Romeis ([2010]), specifically under the following conditions:
Parts of the frozen (− 80 °C) livers from rats treated with 0, 5, 10 or 20 ppm NVP were thawed in formalin (specifically 4% formaldehyde in sodium phosphate buffer pH 7) and left therein for fixation at least 7 days. Subsequently the livers were cut into approximately 4 mm-thick slices, which were dehydrated in increasingly concentrated ethanol (70–100%), washed in xylene and then transferred into fluid paraffin. The livers were put into kassettes with the parts which were foreseen for cutting toward the bottom, the kassettes filled with paraplast (melting point 58–62 °C) and the material left for hardening. From the embedded livers 3- to 6 µm-thick slices were cut by a rotation microtome, then stretched (in a water bath at 45 °C), transferred to a slide and dried overnight at 50 °C. Subsequently the slices were stained with HE and covered with Pertex. The slices were then microscopically evaluated. Structural changes were classified into severity grades 0, 1, 2 and 3.

[1] = tested on: human lymphocyte cultures; design: method as in MAK [1994]; conditions: ref MAK [1994]; cited from earlier work
(liver) DNA = tested on: (liver) DNA; design: method as in Inveresk Research International (IRI) [1986]; conditions: male CD rats, i.p. 14C-NVP 150 and 300 mg/kg; ref Inveresk Research International (IRI) [1986]; cited from earlier work

`C=CN1CCCC1=O` [NVP, N-vinylpyrrolidone] gave a BROD enzyme activity (CYP 2B/3A; 1 µM NVP) of 470.1 ± 29.7 pmol/min/mg protein, a BROD enzyme activity (CYP 2B/3A; 10 µM NVP) of 445.1 ± 20.9 pmol/min/mg protein and a BROD enzyme activity (CYP 2B/3A; 100 µM NVP) of 456.5 ± 30.9 pmol/min/mg protein. The “Inhibition of BROD activity” value (CYP 2B/3A; 1, 10 or 100 µM NVP) was “does not lead to inhibition”, the “Males without centrilobular hepatocellular fatty change” value (rat liver; 5 ppm, three males examined) was “two of three” and the “Animals with low-grade (grade 1) centrilobular hepatocellular fatty change” value (rat liver; 10 ppm, males) was “two of three”. For the same compound, the “Animals with grade 1 centrilobular hepatocellular fatty change” value (rat liver; 20 ppm, females) was “one of three”, the “Animals with grade 2 centrilobular hepatocellular fatty change” value (rat liver; 20 ppm, females) was “one” and the “Animals with high-grade (grade 3) centrilobular hepatocellular fatty change” value (rat liver; 20 ppm, males) was “two of three”. For the same compound, the “Chromosome aberration test result” value [1] was “negative” and the “Binding of NVP or its metabolites to (liver) DNA” value ((liver) DNA) was “no binding”.
